Source: patent publication US20120220581A1, “IMIDAZO[1,2-b]PYRIDAZINE DERIVATIVES AND THEIR USE AS PDE10 INHIBITORS” (Janssen-Cilag, S.A., priority 2009, published 2012)
Where two headings read alike, the source gives them in different places.

Legend:
[1] = target: T1, Rat recombinant PDE10A (rPDE10A2) (Rattus norvegicus, UniProt Q9QYJ6); assay: In vitro assay PDE10A (SPA, 3H-cAMP); type: biochemical
T1 construct: inferred from the Ni metal chelate purification; made in house; host or cells: Sf9 insect cells (baculovirus)
T1 sequence (Q9QYJ6 1-794): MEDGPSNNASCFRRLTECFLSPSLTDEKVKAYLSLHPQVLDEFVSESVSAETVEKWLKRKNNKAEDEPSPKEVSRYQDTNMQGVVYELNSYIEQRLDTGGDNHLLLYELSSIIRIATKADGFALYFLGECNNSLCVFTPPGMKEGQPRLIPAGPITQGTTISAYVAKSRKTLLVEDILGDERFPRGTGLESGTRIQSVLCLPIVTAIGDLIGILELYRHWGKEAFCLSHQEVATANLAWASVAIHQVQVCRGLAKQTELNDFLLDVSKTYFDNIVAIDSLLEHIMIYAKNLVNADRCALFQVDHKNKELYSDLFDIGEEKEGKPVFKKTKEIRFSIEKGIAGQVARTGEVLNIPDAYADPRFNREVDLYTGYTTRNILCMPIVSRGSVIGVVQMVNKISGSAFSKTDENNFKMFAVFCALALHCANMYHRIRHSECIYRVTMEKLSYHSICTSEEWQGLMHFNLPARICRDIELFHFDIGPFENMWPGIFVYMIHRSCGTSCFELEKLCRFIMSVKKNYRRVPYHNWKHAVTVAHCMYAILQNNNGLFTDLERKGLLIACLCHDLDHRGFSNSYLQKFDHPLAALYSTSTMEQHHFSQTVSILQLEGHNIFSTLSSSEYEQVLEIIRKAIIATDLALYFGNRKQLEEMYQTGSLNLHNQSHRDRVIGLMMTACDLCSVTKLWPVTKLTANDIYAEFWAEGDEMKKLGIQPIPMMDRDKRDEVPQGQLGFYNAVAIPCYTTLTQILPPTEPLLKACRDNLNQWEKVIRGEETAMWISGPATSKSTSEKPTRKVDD
Summary of the method: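 Rat PDE10A2 expressed in Sf9 cells and Ni-purified; incubated with 60 nM cAMP plus 0.008 μCi 3H-cAMP in 50 mM Tris pH 7.8, 8.3 mM MgCl2, 1.7 mM EGTA for 60 min at room temperature. Product quantified by scintillation proximity counting; final DMSO 1%.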

PDE4D3 = PDE4D3 (Homo sapiens, UniProt Q08499); assay: In vitro PDE selectivity assay (SPA), PDE4D3; type: biochemical; details: hPDE4D3; read-out: PDE 4D3 (expressed as pIC50) (converted)
Procedure: (§1) Rat recombinant PDE10A (rPDE10A2) was expressed in Sf9 cells using a recombinant rPDE10A baculovirus construct. Cells were harvested after 48 h of infection and the rPDE10A protein was purified by metal chelate chromatography on Ni-sepharose 6FF. Tested compounds were dissolved and diluted in 100% DMSO to a concentration 100 fold of the final concentration in the assay. Compound dilutions (0.4 μl) were added in 384 well plates to 20 μl of incubation buffer (50 mM Tris pH 7.8, 8.3 mM MgCl2, 1.7 mM EGTA). 10 μl of rPDE10A enzyme in incubation buffer was added and the reaction was started by addition of 10 μl substrate to a final concentration of 60 nM cAMP and 0.008 μCi ^3H-cAMP. The reaction was incubated for 60 minutes at room temperature. After incubation, the reaction was stopped with 20 μl of stop solution consisting of 17.8 mg/ml PDE SPA (scintillation proximity assay) beads. After sedimentation of the beads during 30 minutes the radioactivity was measured in a Perkin Elmer Topcount scintillation counter and results were expressed as cpm. For blanc values the enzyme was omitted from the reaction and replaced by incubation buffer. Control values were obtained by addition of a final concentration of 1% DMSO instead of compound. The same assay principle is applied for the measurement of the affinity of the compound for other members of the PDE family with appropriate modifications in incubation buffer, substrate concentration, incubation time and stop solution. An overview of the different protocols is presented in table A. A best fit curve is fitted by a minimum sum of squares method to the plot of % of control value substracted with blanc value versus compound concentration and the half maximal inhibitory concentration (IC50) value is derived from this curve.
(§2) The compounds of the invention are generally selective for PDE10 compared to other PDEs and there are a few that also have affinity for PDE1B1, 4D3 and 5A3.

PDE5A3 = PDE5A3 (Homo sapiens, UniProt O76074); assay: In vitro PDE selectivity assay (SPA), PDE5A3; type: biochemical; details: hPDE5A3; read-out: PDE 5A3 (expressed as pIC50) (converted)
Procedure: as §1, §2

[2] = target: other members of the PDE family (Homo sapiens, UniProt O00408); assay: In vitro PDE selectivity assay (SPA), other members of the PDE family (protocols in Table A); type: biochemical; details: hPDE2A; read-out: PDE 2A (expressed as pIC50) (converted)
Procedure: as §1, §2

[3] = target: other members of the PDE family (Homo sapiens, UniProt O76083); assay: as above; type: biochemical; details: hPDE9A; read-out: PDE 9A (expressed as pIC50) (converted)
Procedure: as §1, §2

[4] = target: other members of the PDE family (Homo sapiens, UniProt Q13946); assay: as above; type: biochemical; details: hPDE7A1; read-out: PDE 7A (expressed as pIC50) (converted)
Procedure: as §1, §2

[5] = target: other members of the PDE family (Homo sapiens, UniProt Q14432); assay: as above; type: biochemical; details: hPDE3A; read-out: PDE 3A (expressed as pIC50) (converted)
Procedure: as §1, §2

[6] = target: other members of the PDE family (Homo sapiens, UniProt Q9HCR9); assay: as above; type: biochemical; details: hPDE11A4; read-out: PDE 11A4 (expressed as pIC50) (converted)
Procedure: as §1, §2

[7] = test system: apomorphine-induced stereotypy in rats; assay: Apomorphine-induced stereotypy in rats (APO); type: in vivo; details: Rattus norvegicus, ≧: active in 30% of the animals at the indicated dose, ≦: active in 60%
Procedure: Apomorphine (1.0 mg/kg, i.v.)-induced stereotypy (compulsive sniffing, licking, chewing) was scored every 5 min over the first hour after injection of apomorphine, following a 1 hour interval pre-treatment with the test compound. The score system was: (3) pronounced, (2) moderate, (1) slight, and (0) absent.

PDE10 = target: T2, PDE10 (Rattus norvegicus, UniProt Q9QYJ6); assay: PDE10 occupancy ([3H]-MP-10, striatum); type: in vivo; details: rat, single dose 10 mg/kg
T2 construct: from tissue; host or cells: rat brain sections, striatum (in vivo dosing, ex vivo autoradiography)
T2 sequence (Q9QYJ6 1-794): T1 sequence (Q9QYJ6 1-794)
Procedure: Dose-response or single dose experiments were performed to measure PDE10 occupancy 1 hour after subcutaneous (s.c.) or oral (p.o.) administration. Male Wistar rats (200 g) were treated by s.c. or p.o. administration of various PDE10 inhibitors. The PDE10 radioligand [^3H]-MP-10 (10 μCi/animal) was injected intravenously (i.v.) 30 minutes before sacrifice. Brains were immediately removed from the skull and rapidly frozen. Twenty μm-thick brain sections were cut using a cryostat-microtome, thaw-mounted on microscope slides and loaded in a β-imager to quantify PDE10 occupancy in the striatum.

[8] = Table 4 in vitro selectivity, read-out: PDE 10A2 (expressed as pIC50) (converted)
[9] = pIC50 corresponds to the −log IC50 expressed in mol/L, read-out: PDE10A2 pIC50 (converted)
[10] = dose at which 50% of the tested animals show the effect
[11] = po, * compound not soluble, tested orally as a suspension

other members of the PDE family (Homo sapiens, UniProt Q14432), sequence (Q14432 whole entry): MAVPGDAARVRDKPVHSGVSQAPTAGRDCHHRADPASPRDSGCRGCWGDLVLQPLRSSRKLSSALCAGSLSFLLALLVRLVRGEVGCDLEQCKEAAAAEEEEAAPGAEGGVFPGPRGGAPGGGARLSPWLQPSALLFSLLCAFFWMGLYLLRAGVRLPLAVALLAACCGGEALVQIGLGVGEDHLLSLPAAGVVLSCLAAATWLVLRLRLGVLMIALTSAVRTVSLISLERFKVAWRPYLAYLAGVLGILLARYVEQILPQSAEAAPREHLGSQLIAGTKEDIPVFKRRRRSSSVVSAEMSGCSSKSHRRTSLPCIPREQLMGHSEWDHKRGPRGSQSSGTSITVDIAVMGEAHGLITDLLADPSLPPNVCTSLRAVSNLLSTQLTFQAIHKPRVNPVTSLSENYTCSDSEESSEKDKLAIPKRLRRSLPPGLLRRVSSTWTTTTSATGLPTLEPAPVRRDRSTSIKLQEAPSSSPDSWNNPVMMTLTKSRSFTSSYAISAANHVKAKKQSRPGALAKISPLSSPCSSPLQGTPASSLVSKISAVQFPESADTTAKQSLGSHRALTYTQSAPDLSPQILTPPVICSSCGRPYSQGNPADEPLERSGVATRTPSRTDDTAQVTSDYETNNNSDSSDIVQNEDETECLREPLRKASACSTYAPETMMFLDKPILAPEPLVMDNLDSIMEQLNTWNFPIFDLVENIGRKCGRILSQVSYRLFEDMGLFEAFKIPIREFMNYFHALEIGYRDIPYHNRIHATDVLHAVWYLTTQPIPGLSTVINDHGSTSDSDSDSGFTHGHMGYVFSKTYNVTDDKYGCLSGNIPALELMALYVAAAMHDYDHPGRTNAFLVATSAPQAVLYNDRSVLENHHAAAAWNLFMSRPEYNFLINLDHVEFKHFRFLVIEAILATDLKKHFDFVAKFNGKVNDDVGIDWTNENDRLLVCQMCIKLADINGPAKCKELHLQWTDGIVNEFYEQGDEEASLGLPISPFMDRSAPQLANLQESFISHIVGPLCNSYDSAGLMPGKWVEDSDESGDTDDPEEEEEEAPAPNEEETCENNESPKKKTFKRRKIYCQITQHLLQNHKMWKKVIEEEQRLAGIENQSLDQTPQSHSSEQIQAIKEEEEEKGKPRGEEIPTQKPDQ
other members of the PDE family (Homo sapiens, UniProt O00408), sequence (O00408 whole entry): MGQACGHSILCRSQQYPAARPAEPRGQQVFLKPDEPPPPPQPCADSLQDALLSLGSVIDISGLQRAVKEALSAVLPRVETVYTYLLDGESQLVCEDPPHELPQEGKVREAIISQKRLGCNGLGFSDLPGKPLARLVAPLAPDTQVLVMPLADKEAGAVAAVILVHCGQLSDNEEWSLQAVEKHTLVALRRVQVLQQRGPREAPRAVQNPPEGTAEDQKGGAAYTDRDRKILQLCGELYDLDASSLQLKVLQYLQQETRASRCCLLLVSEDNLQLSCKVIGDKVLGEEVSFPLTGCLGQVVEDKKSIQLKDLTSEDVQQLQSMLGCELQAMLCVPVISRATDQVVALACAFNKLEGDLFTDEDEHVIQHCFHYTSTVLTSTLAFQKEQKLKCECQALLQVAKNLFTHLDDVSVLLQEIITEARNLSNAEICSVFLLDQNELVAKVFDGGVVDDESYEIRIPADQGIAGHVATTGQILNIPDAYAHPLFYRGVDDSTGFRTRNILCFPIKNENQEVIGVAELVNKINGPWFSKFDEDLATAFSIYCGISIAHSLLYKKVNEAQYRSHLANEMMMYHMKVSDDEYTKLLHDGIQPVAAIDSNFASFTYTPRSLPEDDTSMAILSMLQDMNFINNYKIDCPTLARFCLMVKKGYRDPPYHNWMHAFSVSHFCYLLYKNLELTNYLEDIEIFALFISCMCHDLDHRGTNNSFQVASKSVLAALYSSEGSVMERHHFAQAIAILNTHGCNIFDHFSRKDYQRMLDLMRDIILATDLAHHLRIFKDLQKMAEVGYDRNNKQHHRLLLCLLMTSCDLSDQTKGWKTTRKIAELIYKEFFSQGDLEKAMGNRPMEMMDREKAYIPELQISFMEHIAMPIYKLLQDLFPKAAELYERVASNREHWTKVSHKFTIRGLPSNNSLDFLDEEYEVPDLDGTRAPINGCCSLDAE
other members of the PDE family (Homo sapiens, UniProt Q9HCR9), sequence (Q9HCR9 whole entry): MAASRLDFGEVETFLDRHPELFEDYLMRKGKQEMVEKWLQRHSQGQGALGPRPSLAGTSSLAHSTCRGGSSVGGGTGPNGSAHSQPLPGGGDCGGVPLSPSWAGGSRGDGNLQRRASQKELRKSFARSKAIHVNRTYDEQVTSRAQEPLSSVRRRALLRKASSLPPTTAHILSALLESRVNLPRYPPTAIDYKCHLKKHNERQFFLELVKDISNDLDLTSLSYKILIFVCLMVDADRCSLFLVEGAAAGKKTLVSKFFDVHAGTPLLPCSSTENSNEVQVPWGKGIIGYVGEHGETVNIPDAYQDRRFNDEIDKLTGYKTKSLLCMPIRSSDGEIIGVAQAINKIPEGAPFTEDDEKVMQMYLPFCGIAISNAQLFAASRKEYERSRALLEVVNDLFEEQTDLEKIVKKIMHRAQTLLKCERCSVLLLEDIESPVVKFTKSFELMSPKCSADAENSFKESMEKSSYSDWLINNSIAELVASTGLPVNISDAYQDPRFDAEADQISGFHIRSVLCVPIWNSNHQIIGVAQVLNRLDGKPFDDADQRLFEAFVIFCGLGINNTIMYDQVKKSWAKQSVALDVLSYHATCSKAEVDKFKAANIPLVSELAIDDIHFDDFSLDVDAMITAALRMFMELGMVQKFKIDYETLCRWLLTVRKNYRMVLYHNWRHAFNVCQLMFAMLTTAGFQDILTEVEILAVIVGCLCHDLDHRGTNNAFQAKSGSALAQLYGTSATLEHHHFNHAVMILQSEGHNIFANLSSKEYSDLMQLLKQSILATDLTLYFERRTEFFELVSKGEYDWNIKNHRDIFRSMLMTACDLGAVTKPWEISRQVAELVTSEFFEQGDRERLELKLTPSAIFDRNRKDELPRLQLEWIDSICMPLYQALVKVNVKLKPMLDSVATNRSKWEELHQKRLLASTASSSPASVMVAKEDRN
other members of the PDE family (Homo sapiens, UniProt Q13946), sequence (Q13946 whole entry): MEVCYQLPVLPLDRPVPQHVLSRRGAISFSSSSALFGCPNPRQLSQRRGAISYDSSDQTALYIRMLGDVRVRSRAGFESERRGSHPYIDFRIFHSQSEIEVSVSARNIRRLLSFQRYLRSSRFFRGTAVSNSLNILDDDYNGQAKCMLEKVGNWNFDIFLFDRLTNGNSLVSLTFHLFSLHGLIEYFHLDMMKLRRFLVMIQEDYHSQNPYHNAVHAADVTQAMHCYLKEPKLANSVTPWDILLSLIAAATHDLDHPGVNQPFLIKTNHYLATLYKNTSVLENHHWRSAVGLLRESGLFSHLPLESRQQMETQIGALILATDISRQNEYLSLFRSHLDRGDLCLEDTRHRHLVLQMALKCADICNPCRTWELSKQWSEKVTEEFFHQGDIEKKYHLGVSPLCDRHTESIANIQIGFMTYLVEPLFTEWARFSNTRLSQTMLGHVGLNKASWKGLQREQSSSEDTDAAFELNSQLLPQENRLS
PDE4D3, sequence (Q08499 1-673 isoform Q08499-2): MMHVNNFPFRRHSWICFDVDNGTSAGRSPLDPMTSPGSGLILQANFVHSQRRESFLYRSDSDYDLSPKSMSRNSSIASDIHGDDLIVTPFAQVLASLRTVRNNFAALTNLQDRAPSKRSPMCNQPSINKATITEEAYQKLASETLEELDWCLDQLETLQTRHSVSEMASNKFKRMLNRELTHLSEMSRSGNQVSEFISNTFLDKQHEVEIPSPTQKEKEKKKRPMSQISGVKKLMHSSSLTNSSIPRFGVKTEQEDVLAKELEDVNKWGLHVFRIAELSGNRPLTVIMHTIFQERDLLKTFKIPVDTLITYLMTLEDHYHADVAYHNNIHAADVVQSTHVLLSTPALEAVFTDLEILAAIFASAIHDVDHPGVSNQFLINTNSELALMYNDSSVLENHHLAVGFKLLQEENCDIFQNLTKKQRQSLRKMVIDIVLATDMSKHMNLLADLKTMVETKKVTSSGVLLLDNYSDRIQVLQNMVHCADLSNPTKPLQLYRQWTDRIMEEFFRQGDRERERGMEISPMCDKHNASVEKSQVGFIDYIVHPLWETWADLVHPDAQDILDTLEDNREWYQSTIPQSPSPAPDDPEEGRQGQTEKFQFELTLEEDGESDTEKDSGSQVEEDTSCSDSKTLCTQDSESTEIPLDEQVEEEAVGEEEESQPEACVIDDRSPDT
other members of the PDE family (Homo sapiens, UniProt O76083), sequence (O76083 whole entry): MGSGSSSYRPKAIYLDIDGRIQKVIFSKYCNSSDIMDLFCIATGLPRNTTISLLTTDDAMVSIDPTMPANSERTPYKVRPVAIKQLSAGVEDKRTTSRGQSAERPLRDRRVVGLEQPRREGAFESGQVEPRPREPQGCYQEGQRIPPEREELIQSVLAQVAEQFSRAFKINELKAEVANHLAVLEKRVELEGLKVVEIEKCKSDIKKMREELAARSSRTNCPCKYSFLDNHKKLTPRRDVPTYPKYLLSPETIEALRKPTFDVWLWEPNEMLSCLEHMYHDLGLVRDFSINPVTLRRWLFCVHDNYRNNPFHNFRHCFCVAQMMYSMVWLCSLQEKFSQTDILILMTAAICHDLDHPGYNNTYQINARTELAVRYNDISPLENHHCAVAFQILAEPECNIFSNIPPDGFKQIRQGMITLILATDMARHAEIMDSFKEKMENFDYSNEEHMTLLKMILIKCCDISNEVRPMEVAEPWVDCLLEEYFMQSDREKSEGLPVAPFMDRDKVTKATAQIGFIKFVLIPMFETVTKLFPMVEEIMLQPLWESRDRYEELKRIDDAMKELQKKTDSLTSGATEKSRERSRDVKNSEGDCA

| SMILES | IC50 [1, 8] [µM] | IC50 [1, 9] [µM] | IC50 (PDE4D3) [µM] | IC50 (PDE5A3) [µM] | IC50 [2] [µM] | IC50 [3] [µM] | IC50 [4] [µM] | IC50 [5] [µM] | IC50 [6] [µM] | receptor occupancy at 10 mg/kg (PDE10; oral, read-out: SD po % occupancy at 10 mg/kg) [%] | receptor occupancy at 10 mg/kg (PDE10; sc, subcutaneous, read-out: SD sc % occupancy at 10 mg/kg) [%] | ED50 [7, 10] [mg/kg] | ED50 [7, 11] [mg/kg] |
| --- | --- | --- | --- | --- | --- | --- | --- | --- | --- | --- | --- | --- | --- |
| Cc1nc2c(N3CCOCC3)ccnn2c1-c1ccc(C2CC2)nc1 [compound 33, 3-(6-cyclopropyl-3-pyridinyl)-2-methyl-8-(4-morpholinyl)-imidazo[1,2-b]pyridazine] | 0.0776 | 0.0776 | > 10 | > 10 | > 10 | > 10 | > 10 | > 10 | > 10 |  |  |  | ≥ 2.5 |
| Cc1nc2c(N3CCOCC3)ccnn2c1-c1ccnc(N2CCOCC2)c1 [compound 91, 2-methyl-8-(4-morpholinyl)-3-[2-(4-morpholinyl)-4-pyridinyl]-imidazo[1,2-b]pyridazine] | 0.0468 | 0.0468 | > 10 | 8.51 | > 10 | > 10 | > 10 | > 10 | > 10 |  |  | 1.2 |  |
| Cc1nc2c(N3CCOCC3)ccnn2c1-c1cnn(C2CCOCC2)c1 [compound 117, 2-methyl-8-(4-morpholinyl)-3-[1-(tetrahydro-2H-pyran-4-yl)-1H-pyrazol-4-yl]-imidazo[1,2-b]pyridazine] | 0.0977 | 0.0977 | > 10 | > 10 | > 10 | > 10 | > 10 | > 10 |  |  |  |  |  |
| COC(C)(C)CCc1ccc(-c2c(C)nc3c(N4CCOCC4)ccnn23)cn1 [compound 29, 3-[6-(3-methoxy-3-methylbutyl)-3-pyridinyl]-2-methyl-8-(4-morpholinyl)-imidazo[1,2-b]pyridazine] | 0.0437 | 0.0437 | > 10 | 4.47 | 1.2 | > 10 | > 10 | > 10 | > 10 |  |  | ≥ 2.5 |  |
| COC(C)(C)COc1ccc(-c2c(C)nc3c(N4CCOCC4)ccnn23)cn1 [compound 18, 3-[6-(2-methoxy-2-methylpropoxy)-3-pyridinyl]-2-methyl-8-(4-morpholinyl)-imidazo[,2-b]pyridazine] | 0.17 | 0.17 | > 10 |  | > 10 | > 10 | > 10 | > 10 | > 10 |  | 46 | 5 |  |
| Cc1nc2c(N3CCOCC3)ccnn2c1-c1ccc(C(C)C)nc1 [compound 32, 2-methyl-3-[6-(1-methylethyl)-3-pyridinyl]-8-(4-morpholinyl)-imidazo[1,2-b]pyridazine] | 0.0776 | 0.0776 | > 10 | > 10 | > 10 | > 10 | > 10 | > 10 | > 10 |  |  | 5 |  |
| COCCc1ccc(-c2c(C3CC3)nc3c(-c4ccncc4)ccnn23)cn1 [compound 10, 2-cyclopropyl-3-[6-(2-methoxyethyl)-3-pyridinyl]-8-(4-pyridinyl)-imidazo[1,2-b]pyridazine] | 0.0115 | 0.0115 | 1.26 | 1.29 | 6.61 | > 10 | > 10 | > 10 | 1.41 |  |  | 1.2 |  |

Continued, in another order:

| IC50 [1, 8] [µM] | IC50 [1, 9] [µM] | IC50 (PDE4D3) [µM] | IC50 (PDE5A3) [µM] | IC50 [2] [µM] | IC50 [3] [µM] | IC50 [4] [µM] | IC50 [5] [µM] | IC50 [6] [µM] | receptor occupancy at 10 mg/kg (PDE10; oral, read-out: SD po % occupancy at 10 mg/kg) [%] | receptor occupancy at 10 mg/kg (PDE10; sc, subcutaneous, read-out: SD sc % occupancy at 10 mg/kg) [%] | SMILES | ED50 [7, 10] [mg/kg] | ED50 [7, 11] [mg/kg] |
| --- | --- | --- | --- | --- | --- | --- | --- | --- | --- | --- | --- | --- | --- |
| 0.105 | 0.105 | 5.5 | 0.589 | 8.13 | > 10 | 4.9 | > 10 | 5.37 |  |  | COCCn1cc(-c2c(C)nc3c(-c4ccncc4)cc(C)nn23)cn1 [compound 134, 3-[1-(2-methoxyethyl)-1H-pyrazol-4-yl]-2,6-dimethyl-8-(4-pyridinyl)-imidazo[1,2-b]pyridazine] | 5 |  |
| 0.0501 | 0.0501 | > 10 |  | > 10 | > 10 | > 10 | > 10 | > 10 | 4 |  | Cc1nc2c(N3CCOCC3)ccnn2c1-c1cnn(CC2CC2(F)F)c1 (centres unmarked) [compound 118] |  | ≤ 10 |
| 0.0955 | 0.0955 | > 10 | 2.4 | > 10 | > 10 | > 10 | > 10 | > 10 |  |  | COCCn1cc(-c2c(C)nc3c(N4CCOCC4)cc(C)nn23)cn1 [compound 133, 3-[1-(2-methoxyethyl)-1H-pyrazol-4-yl]-2,6-dimethyl-8-(4-morpholinyl)-imidazo[1,2-b]pyridazine] | 3.1 |  |
| 0.0525 | 0.0525 | > 10 | 1.91 | > 10 | > 10 | 8.51 | > 10 | > 10 |  |  | Cc1nc2c(N3CCOCC3)cc(Cl)nn2c1-c1cnn(CC(F)(F)F)c1 [compound 146, 6-chloro-2-methyl-8-(4-morpholinyl)-3-[1-(2,2,2-trifluoroethyl)-1H-pyrazol-4-yl]-imidazo[1,2-b]pyridazine] |  |  |
